Assay: mn = molality of the nth substance listed, in mol/kg
Conditions: 101.3 kPa, Liquid; for viscosity: Capillary tube (Ostwald / Ubbelohde) method; for mass density: Pycnometric method

O=C(O)c1cccnc1 [3-carboxylpyridine] + O
Conditions | mass density [kg/m3] | viscosity [mPa·s]
275.15 K, m1 = 0.0098 | 1000.41 | 1.675
275.15 K, m1 = 0.0199 | 1000.84 | 1.685
275.15 K, m1 = 0.023 | 1000.96 | 1.687
275.15 K, m1 = 0.0249 | 1001.1 | 1.687
275.15 K, m1 = 0.0299 | 1001.29 | 1.691
275.15 K, m1 = 0.0349 | 1001.51 | 1.686
275.15 K, m1 = 0.0402 | 1001.76 | 1.691
275.15 K, m1 = 0.0429 | 1001.91 | 1.693
275.15 K, m1 = 0.0453 | 1002.02 | 1.694
275.15 K, m1 = 0.0497 | 1002.2 | 1.69
275.15 K, m1 = 0.055 | 1002.46 | 1.7
275.15 K, m1 = 0.06 | 1002.7 | 1.702
275.15 K, m1 = 0.0646 | 1002.87 | 1.704
275.15 K, m1 = 0.0701 | 1003.17 | 1.706
275.15 K, m1 = 0.0801 | 1003.54 | 1.715
277.15 K, m1 = 0.0094 | 1000.39 | 1.572
277.15 K, m1 = 0.0201 | 1000.87 | 1.574
277.15 K, m1 = 0.0231 | 1000.98 | 1.574
277.15 K, m1 = 0.025 | 1001.1 | 1.576
277.15 K, m1 = 0.0296 | 1001.29 | 1.577
277.15 K, m1 = 0.0399 | 1001.69 | 1.58
277.15 K, m1 = 0.043 | 1001.86 | 1.582
277.15 K, m1 = 0.0451 | 1001.97 | 1.583
277.15 K, m1 = 0.0499 | 1002.23 | 1.586
277.15 K, m1 = 0.055 | 1002.34 | 1.586
277.15 K, m1 = 0.06 | 1002.64 | 1.587
277.15 K, m1 = 0.0631 | 1002.69 | 1.591
277.15 K, m1 = 0.065 | 1002.84 | 1.591
277.15 K, m1 = 0.0705 | 1003.13 | 1.592
279.15 K, m1 = 0.0103 | 1000.39 | 1.474
279.15 K, m1 = 0.0198 | 1000.79 | 1.479
279.15 K, m1 = 0.0229 | 1000.95 | 1.485
279.15 K, m1 = 0.03 | 1001.23 | 1.489
279.15 K, m1 = 0.0351 | 1001.46 | 1.49
279.15 K, m1 = 0.04 | 1001.74 | 1.495
279.15 K, m1 = 0.0431 | 1001.79 | 1.494
279.15 K, m1 = 0.0454 | 1001.94 | 1.496
279.15 K, m1 = 0.0501 | 1002.16 | 1.499
279.15 K, m1 = 0.0551 | 1002.39 | 1.503
279.15 K, m1 = 0.06 | 1002.54 | 1.5
279.15 K, m1 = 0.0631 | 1002.68 | 1.502
279.15 K, m1 = 0.065 | 1002.79 | 1.503
279.15 K, m1 = 0.0701 | 1003.04 | 1.509

NC(=O)c1cccnc1 [3-pyridinecarboxamide] + O
Conditions | mass density [kg/m3] | viscosity [mPa·s]
275.15 K, m1 = 0.0101 | 1000.22 | 1.683
275.15 K, m1 = 0.0201 | 1000.53 | 1.687
275.15 K, m1 = 0.03 | 1000.83 | 1.691
275.15 K, m1 = 0.035 | 1001.02 | 1.697
275.15 K, m1 = 0.0401 | 1001.11 | 1.703
275.15 K, m1 = 0.0452 | 1001.26 | 1.707
275.15 K, m1 = 0.0502 | 1001.51 | 1.71
275.15 K, m1 = 0.0598 | 1001.74 | 1.711
275.15 K, m1 = 0.0651 | 1001.85 | 1.714
275.15 K, m1 = 0.07 | 1002.13 | 1.718
275.15 K, m1 = 0.0749 | 1002.21 | 1.724
275.15 K, m1 = 0.08 | 1002.41 | 1.721
275.15 K, m1 = 0.0852 | 1002.57 | 1.724
275.15 K, m1 = 0.1004 | 1002.93 | 1.73
277.15 K, m1 = 0.01 | 1000.25 | 1.578
277.15 K, m1 = 0.0202 | 1000.54 | 1.583
277.15 K, m1 = 0.03 | 1000.97 | 1.588
277.15 K, m1 = 0.0348 | 1000.98 | 1.59
277.15 K, m1 = 0.045 | 1001.27 | 1.595
277.15 K, m1 = 0.05 | 1001.42 | 1.598
277.15 K, m1 = 0.0601 | 1001.66 | 1.603
277.15 K, m1 = 0.0652 | 1001.86 | 1.605
277.15 K, m1 = 0.0691 | 1002 | 1.607
277.15 K, m1 = 0.075 | 1002.19 | 1.61
277.15 K, m1 = 0.0801 | 1002.29 | 1.612
277.15 K, m1 = 0.0849 | 1002.44 | 1.615
279.15 K, m1 = 0.02 | 1000.51 | 1.481
279.15 K, m1 = 0.0302 | 1000.82 | 1.482
279.15 K, m1 = 0.0347 | 1000.97 | 1.485
279.15 K, m1 = 0.0348 | 1000.92 | 1.485
279.15 K, m1 = 0.04 | 1001.13 | 1.487
279.15 K, m1 = 0.0451 | 1001.28 | 1.488
279.15 K, m1 = 0.05 | 1001.45 | 1.493
279.15 K, m1 = 0.0598 | 1001.7 | 1.495
279.15 K, m1 = 0.0699 | 1001.95 | 1.5
279.15 K, m1 = 0.0749 | 1002.04 | 1.504
279.15 K, m1 = 0.0799 | 1002.19 | 1.507
279.15 K, m1 = 0.0849 | 1002.36 | 1.51
279.15 K, m1 = 0.0897 | 1002.44 | 1.513
279.15 K, m1 = 0.1004 | 1002.78 | 1.52

Source: the NIST ThermoML archive (doi:10.1016/j.jct.2014.02.024)
